In this test the target is T1, xanthine oxidase (Bos taurus, UniProt P80457).
T1 construct: gene XDH
Put plainly: spectrophotometric assay of uric acid formation at […] nm, bovine milk enzyme. In kind it is biochemical. The note with it: read-out: IC50 (nM) ± SEM.

The record followed here is PMC12062022, “Chromene flavanones from Dalea boliviana as xanthine oxidase inhibitors: in vitro biological evaluation and molecular docking studies” (Frontiers in Pharmacology, 2025).

As usually defined, the IC50 is the midpoint of a concentration-inhibition curve.

T1 sequence (P80457 2-1332): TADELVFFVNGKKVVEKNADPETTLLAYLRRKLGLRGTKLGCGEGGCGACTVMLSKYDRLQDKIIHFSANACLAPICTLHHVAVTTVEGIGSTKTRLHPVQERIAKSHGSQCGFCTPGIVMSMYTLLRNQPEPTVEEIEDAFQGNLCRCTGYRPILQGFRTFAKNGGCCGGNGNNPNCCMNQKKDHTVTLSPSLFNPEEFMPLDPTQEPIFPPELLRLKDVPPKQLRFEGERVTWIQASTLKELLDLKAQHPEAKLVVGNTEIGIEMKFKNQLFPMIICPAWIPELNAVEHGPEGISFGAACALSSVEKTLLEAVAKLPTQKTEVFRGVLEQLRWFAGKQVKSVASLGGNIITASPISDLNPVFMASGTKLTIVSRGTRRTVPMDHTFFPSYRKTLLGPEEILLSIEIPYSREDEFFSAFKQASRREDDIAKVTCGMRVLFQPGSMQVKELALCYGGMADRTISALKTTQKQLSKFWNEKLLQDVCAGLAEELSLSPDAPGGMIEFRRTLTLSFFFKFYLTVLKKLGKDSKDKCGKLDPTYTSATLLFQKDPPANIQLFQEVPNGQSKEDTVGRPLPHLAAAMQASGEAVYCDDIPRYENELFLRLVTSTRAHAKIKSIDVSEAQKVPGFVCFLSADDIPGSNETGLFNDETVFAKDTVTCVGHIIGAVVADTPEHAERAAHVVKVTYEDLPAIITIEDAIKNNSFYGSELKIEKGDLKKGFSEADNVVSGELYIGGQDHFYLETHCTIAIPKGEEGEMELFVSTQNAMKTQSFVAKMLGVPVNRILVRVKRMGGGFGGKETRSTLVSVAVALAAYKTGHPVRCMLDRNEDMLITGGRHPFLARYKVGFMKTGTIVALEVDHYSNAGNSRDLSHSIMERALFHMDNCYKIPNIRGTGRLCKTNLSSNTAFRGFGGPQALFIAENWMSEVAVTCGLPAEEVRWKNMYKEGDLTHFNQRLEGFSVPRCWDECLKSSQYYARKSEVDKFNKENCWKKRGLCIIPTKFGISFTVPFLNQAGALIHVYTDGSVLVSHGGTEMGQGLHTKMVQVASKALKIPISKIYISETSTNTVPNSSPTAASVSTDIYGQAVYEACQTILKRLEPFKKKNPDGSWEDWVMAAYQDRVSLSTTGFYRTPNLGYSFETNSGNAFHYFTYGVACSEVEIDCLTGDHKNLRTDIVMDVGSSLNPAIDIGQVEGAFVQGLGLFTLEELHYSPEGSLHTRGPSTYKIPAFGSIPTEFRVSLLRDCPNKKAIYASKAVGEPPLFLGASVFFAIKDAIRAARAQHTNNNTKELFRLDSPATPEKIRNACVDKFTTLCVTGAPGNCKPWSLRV

For `CC1(C)C=Cc2c(cc(O)c3c2OC(c2ccccc2O)CC3=O)O1` (stereo in doubt) [compound 1, (2S) 5,2′-dihydroxy-6″,6″-dimethylchromeno-(7,8:2″,3″)-flavanone], the IC50 came to 0.5 nM. As for `CC(C)=CCc1cccc(C2CC(=O)c3c(O)cc4c(c3O2)C=CC(C)(C)O4)c1O` (stereo in doubt) [compound 2, (2S) 5,2′-dihydroxy-6″,6″-dimethylchromeno-(7,8:2″,3″)-3′-prenylflavanone], the IC50 came out at 1.7 nM.
